Experiment: xn = mol fraction of the nth substance listed
Conditions: for speed of sound: 100 kPa, Pulse-echo method; for speed of sound / viscosity / mass density: Liquid; for viscosity / mass density: 101 kPa; for viscosity: Concentric cylinders viscometry; for mass density: Vibrating tube method; for surface tension liquid-gas: 294.7 K, Drop volume

CC(CC(C)(C)C)CC(C)(C)C [2,2,4,6,6-pentamethylheptane] + CCCCCCCCCCCC
Conditions	mass density [kg/m3]	speed of sound [m/s]	viscosity [mPa·s]
293.15 K, x1 = 0.1	748.467	1288.5	1.45
293.15 K, x1 = 0.2	748.123	1279.3	1.42
293.15 K, x1 = 0.2885	747.857	1271.4	1.4
293.15 K, x1 = 0.3998	747.387	1261.4	1.37
293.15 K, x1 = 0.4999	747.034	1251.6	1.35
293.15 K, x1 = 0.6501	746.519	1238	1.33
293.15 K, x1 = 0.7998	745.947	1223.2	1.31
293.15 K, x1 = 1	–	1203.6	–
303.15 K, x1 = 0.1	741.234	1250.3	1.22
303.15 K, x1 = 0.2	740.898	1241.1	1.2
303.15 K, x1 = 0.2885	740.654	1233.2	1.18
303.15 K, x1 = 0.3998	740.15	1223.2	1.16
303.15 K, x1 = 0.4999	739.835	1213.4	1.15
303.15 K, x1 = 0.6501	739.313	1199.6	1.13
303.15 K, x1 = 0.7998	738.715	1184.7	1.12
303.15 K, x1 = 1	–	1164.8	–
313.15 K, x1 = 0.1	733.97	1212.5	1.03
313.15 K, x1 = 0.2	733.64	1203.3	1.02
313.15 K, x1 = 0.2885	733.415	1195.5	1
313.15 K, x1 = 0.3998	732.953	1185.4	0.988
313.15 K, x1 = 0.4999	732.598	1175.7	0.977
313.15 K, x1 = 0.6501	732.066	1161.8	0.962
313.15 K, x1 = 0.7998	731.445	1146.8	0.952
313.15 K, x1 = 1	–	1126.7	–
323.15 K, x1 = 0.1	726.674	1175.3	0.898
323.15 K, x1 = 0.2	726.352	1166.2	0.885
323.15 K, x1 = 0.2885	726.139	1158.3	0.876
323.15 K, x1 = 0.3998	725.68	1148.3	0.863
323.15 K, x1 = 0.4999	725.324	1138.5	0.856
323.15 K, x1 = 0.6501	724.781	1124.6	0.844
323.15 K, x1 = 0.7998	724.136	1109.5	0.836
323.15 K, x1 = 1	–	1089.3	–
333.15 K, x1 = 0.1	719.342	1138.7	0.784
333.15 K, x1 = 0.2	719.024	1129.6	0.774
333.15 K, x1 = 0.2885	718.82	1121.7	0.766
333.15 K, x1 = 0.3998	718.363	1111.7	0.757
333.15 K, x1 = 0.4999	718.004	1101.9	0.75
333.15 K, x1 = 0.6501	717.449	1087.9	0.741
333.15 K, x1 = 0.7998	716.783	1072.8	0.734
333.15 K, x1 = 1	–	1052.5	–
343.15 K, x1 = 0.1	711.9	–	0.691
343.15 K, x1 = 0.2	711.7	–	0.683
343.15 K, x1 = 0.2885	711.5	–	0.677
343.15 K, x1 = 0.3998	710.9	–	0.668
343.15 K, x1 = 0.4999	710.6	–	0.664
343.15 K, x1 = 0.6501	710	–	0.656
343.15 K, x1 = 0.7998	709.4	–	0.651
353.15 K, x1 = 0.1	704.4	–	0.614
353.15 K, x1 = 0.2	704.1	–	0.607
353.15 K, x1 = 0.2885	703.8	–	0.603
353.15 K, x1 = 0.3998	703.5	–	0.595
353.15 K, x1 = 0.4999	703	–	0.591
353.15 K, x1 = 0.6501	702.5	–	0.584
353.15 K, x1 = 0.7998	701.8	–	0.58
363.15 K, x1 = 0.1	696.8	–	0.551
363.15 K, x1 = 0.2	696.5	–	0.545
363.15 K, x1 = 0.2885	696.3	–	0.526
363.15 K, x1 = 0.3998	695.8	–	0.534
363.15 K, x1 = 0.4999	695.4	–	0.531
363.15 K, x1 = 0.6501	694.8	–	0.525
363.15 K, x1 = 0.7998	694.1	–	0.521
373.15 K, x1 = 0.1	689	–	0.498
373.15 K, x1 = 0.2	688.8	–	0.493
373.15 K, x1 = 0.2885	688.6	–	0.49
373.15 K, x1 = 0.3998	688.1	–	0.483
373.15 K, x1 = 0.4999	687.7	–	0.481
373.15 K, x1 = 0.6501	687.1	–	0.476
373.15 K, x1 = 0.7998	686.3	–	0.472

Conditions	surface tension liquid-gas [mN/m]
x1 = 0.1	24.3
x1 = 0.2	24.1
x1 = 0.2885	23.7
x1 = 0.3998	23.3
x1 = 0.4999	23.2
x1 = 0.6501	22.7
x1 = 0.7998	22.3
x1 = 1	21.8

CC(CC(C)(C)C)CC(C)(C)CC(C)(C)C (centres undefined) [2,2,4,4,6,8,8-heptamethylnonane] + CCCCCCCCCCCC
Conditions	mass density [kg/m3]	speed of sound [m/s]	viscosity [mPa·s]
293.15 K, x1 = 0.103	753.263	1295.6	1.59
293.15 K, x1 = 0.1677	756.137	1294.1	1.67
293.15 K, x1 = 0.2944	761.09	1292	1.84
293.15 K, x1 = 0.4191	765.497	1290.5	2.03
293.15 K, x1 = 0.5011	768.604	1289.5	2.19
293.15 K, x1 = 0.5955	771.819	1288.5	2.4
293.15 K, x1 = 0.7585	777.128	1287.2	2.83
293.15 K, x1 = 0.8985	781.527	1286.3	3.29
293.15 K, x1 = 1	784.457	1285.7	3.7
303.15 K, x1 = 0.103	746.092	1257.5	1.32
303.15 K, x1 = 0.1677	749.065	1256.2	1.39
303.15 K, x1 = 0.2944	754.068	1254.3	1.53
303.15 K, x1 = 0.4191	758.54	1252.9	1.67
303.15 K, x1 = 0.5011	761.702	1252	1.8
303.15 K, x1 = 0.5955	764.964	1251	1.95
303.15 K, x1 = 0.7585	770.346	1249.8	2.28
303.15 K, x1 = 0.8985	774.79	1248.9	2.62
303.15 K, x1 = 1	777.761	1248.5	2.92
313.15 K, x1 = 0.103	738.895	1219.8	1.12
313.15 K, x1 = 0.1677	741.921	1218.7	1.17
313.15 K, x1 = 0.2944	747.011	1217	1.28
313.15 K, x1 = 0.4191	751.556	1215.7	1.4
313.15 K, x1 = 0.5011	754.77	1214.9	1.5
313.15 K, x1 = 0.5955	758.085	1214.1	1.63
313.15 K, x1 = 0.7585	763.538	1213	1.88
313.15 K, x1 = 0.8985	768.028	1212.2	2.14
313.15 K, x1 = 1	771.044	1211.8	2.37
323.15 K, x1 = 0.103	731.669	1182.8	0.966
323.15 K, x1 = 0.1677	734.749	1181.8	1.01
323.15 K, x1 = 0.2944	739.926	1180.3	1.1
323.15 K, x1 = 0.4191	744.546	1179.2	1.19
323.15 K, x1 = 0.5011	747.812	1178.5	1.27
323.15 K, x1 = 0.5955	751.18	1177.8	1.37
323.15 K, x1 = 0.7585	756.708	1176.8	1.57
323.15 K, x1 = 0.8985	761.266	1176.3	1.77
323.15 K, x1 = 1	764.316	1176	1.95
333.15 K, x1 = 0.103	724.407	1146.3	0.84
333.15 K, x1 = 0.1677	727.54	1145.4	0.877
333.15 K, x1 = 0.2944	732.805	1144.2	0.95
333.15 K, x1 = 0.4191	737.503	1143.3	1.03
333.15 K, x1 = 0.5011	740.821	1142.7	1.09
333.15 K, x1 = 0.5955	744.244	1142.2	1.17
333.15 K, x1 = 0.7585	749.858	1141.4	1.33
333.15 K, x1 = 0.8985	754.484	1141	1.49
333.15 K, x1 = 1	757.571	1140.8	1.63
343.15 K, x1 = 0.103	717.1	–	0.738
343.15 K, x1 = 0.1677	720.2	–	0.769
343.15 K, x1 = 0.2944	725.6	–	0.83
343.15 K, x1 = 0.4191	730.4	–	0.895
343.15 K, x1 = 0.5011	733.7	–	0.949
343.15 K, x1 = 0.5955	737.2	–	1.01
343.15 K, x1 = 0.7585	743	–	1.14
343.15 K, x1 = 0.8985	747.6	–	1.27
343.15 K, x1 = 1	750.7	–	1.39
353.15 K, x1 = 0.103	709.6	–	0.654
353.15 K, x1 = 0.1677	712.7	–	0.681
353.15 K, x1 = 0.2944	718.2	–	0.732
353.15 K, x1 = 0.4191	723.1	–	0.787
353.15 K, x1 = 0.5011	726.5	–	0.832
353.15 K, x1 = 0.5955	730.1	–	0.885
353.15 K, x1 = 0.7585	736	–	0.994
353.15 K, x1 = 0.8985	740.7	–	1.1
353.15 K, x1 = 1	743.8	–	1.19
363.15 K, x1 = 0.103	702	–	0.585
363.15 K, x1 = 0.1677	705.3	–	0.608
363.15 K, x1 = 0.2944	710.8	–	0.652
363.15 K, x1 = 0.4191	715.8	–	0.698
363.15 K, x1 = 0.5011	719.2	–	0.737
363.15 K, x1 = 0.5955	722.9	–	0.782
363.15 K, x1 = 0.7585	728.9	–	0.873
363.15 K, x1 = 0.8985	733.6	–	0.963
363.15 K, x1 = 1	736.8	–	1.04
373.15 K, x1 = 0.103	694.5	–	0.528
373.15 K, x1 = 0.1677	697.8	–	0.548
373.15 K, x1 = 0.2944	703.5	–	0.586
373.15 K, x1 = 0.4191	708.5	–	0.626
373.15 K, x1 = 0.5011	712	–	0.659
373.15 K, x1 = 0.5955	715.8	–	0.697
373.15 K, x1 = 0.7585	721.8	–	0.775
373.15 K, x1 = 0.8985	726.6	–	0.85
373.15 K, x1 = 1	729.9	–	0.914

Conditions	surface tension liquid-gas [mN/m]
x1 = 0.1677	24.8
x1 = 0.2944	24.9
x1 = 0.4191	24.6
x1 = 0.5011	24.6
x1 = 0.5955	24.3
x1 = 0.7585	24.2
x1 = 0.8985	24.2
x1 = 1	24
